Tests used:
[1] = target: T1, human adenosine A3 receptor (Homo sapiens (Human), UniProt P0DMS8); assay: Adenosine receptor binding assay ([125I]-AB-MECA competition); details: inhibition of 0.15 nM [125I]-AB-MECA binding, membranes of cells expressing human A3 receptor; read-out: hA3 Ki: Ki
Source text: Example 30: Adenosine Receptor Binding Assay
Materials and Reference Compounds: [^125I]-AB-MECA and [^3H]CCPA are both obtained from Amersham Biosciences (Little Chalfont, UK). IB-MECA are obtained from Tocris (Bristol, UK) and N6-cyclopentyl adenosine (CPA) is obtained from Sigma-Alrich (Poole, UK). Cell culture media, G418 and hygromycin are obtained from Invitrogen (Paisley, UK). Fetal calf serum is obtained from Perbio Science (Cheshire, UK). All other reagents are obtained from Fisher Chemicals (Loughborough, UK).
The method followed is that of Yates L, Clark J H, Martin T J, James S, Broadley K J, Kidd E J. Radioligand binding and functional responses of ligands for human recombinant adenosine A3 receptors. Auton Autacoid Pharmacol. 2006; 26(2):191-200. Cells stably transfected with the human adenosine A3 or A1 receptor are grown in Dulbecco's modified Eagles medium with nutrient mixture F12 containing NaHCO3 and Glutamax. Media is supplemented with 10% fetal calf serum, geneticin (G418; 0.67 mg/mL), hygromycin (500 μg/mL) and adenosine deaminase (1 U/mL). Cells are maintained at 37° C. with 5% CO2 in air. Cells are harvested and homogenized in ice-cold Tris buffer [50 mM Tris, 150 mM NaCl, 1 mM ethylenediaminetetraacetic acid (EDTA), pH 7.4] supplemented with the peptidase inhibitors, 4-(2-aminoethyl)benzenesulfonylfluoride (1 mM) and bacitracin (0.1 mg/mL), using a Polytron homogenizer (3×10 s bursts). The homogenate was spun for 10 min (4° C.) at 500 g. The supernatant is retained and the pellet is re-suspended in the buffer, homogenized and spun as above. The combined supernatants are centrifuged for 15 min (4° C.) at 48,000 g. The resultant pellet is re-suspended in the buffer and centrifuged for a second time at 48,000 g. The membrane pellet is then suspended in Tris buffer containing no peptidase inhibitors or adenosine deaminase and stored at −80° C. at a protein concentration of 1 mg/mL.
Binding Assays: Radioligand-binding assays were performed using the adenosine A3 receptor agonist [^125I]-AB-MECA and the A1 receptor agonist [^3H]CCPA. Binding assays were conducted in a total volume of 100 μL containing a 50 mM Tris, pH 7.4 buffer with or without 10 mM MgCl2, 20 μg membranes and either 0.15 nM [^125I]-AB-MECA (for the A3 receptor) or 1 nM [^3H]CCPA (for the A1 receptor). Assays were conducted at room temperature for 60 min (A1 receptor) or 120 min (A3 receptor) and terminated by the addition of 2 ml of ice-cold wash buffer (50 mM Tris, pH 7.4 with or without 10 mM MgCl2) and rapid filtration over 0.03% polyethylenimine-treated Whatman GF/C filters using a Brandel cell harvester (Semat International Ltd., St Albans, UK). Filters were then washed three times with 2 ml of ice-cold buffer. The filter-bound radioactivity were counted using a Compugamma counter (LKB Wallac, Turku, Finland). Competition experiments were performed to investigate the ability of reference compounds and embodiments of the invention to inhibit [^125I]-AB-MECA binding. Non-specific binding were determined using the respective compound at its highest concentration.
Data Analysis: The Kd and Bmax values for binding data were calculated based upon the molar amounts of bound and free [^125I]-AB-MECA. […] IC50 and Ki values and Hill slopes for inhibition of the radioligand binding by the compounds of the invention were calculated from the ligand competition curves using the Excel spreadsheet and the Kd value calculated for either [^125I]-AB-MECA or [^3H]CCPA. The results were expressed as a percent of control specific binding and as a percent inhibition of control specific binding obtained in the presence of the compounds of the invention. The IC50 values (concentration causing a half-maximal inhibition of control specific binding) and Hill coefficients (nH) were determined by non-linear regression analysis of the competition curves generated with mean replicate values using Hill equation curve fitting: […]

[2] = target: T1, human adenosine A3 receptor; assay: Intracellular cAMP levels (inhibition of forskolin-stimulated cAMP production); format: cell-based; details: for EC50: CHO cells expressing human adenosine A3 receptors, forskolin 10 μM; for CAMP Efficacy (%): maximal response as percentage of the response produced by 100 nM IB-MECA
Source text: Example 31: Intracellular cAMP Levels
The method followed is that published in Yates L, Clark J H, Martin T J, James S, Broadley K J, Kidd E J. Radioligand binding and functional responses of ligands for human recombinant adenosine A3 receptors. Auton Autacoid Pharmacol. 2006 April; 26(2):191-200.
Materials and Cell Culture: Adenosine deaminase was obtained from Roche (Lewes, UK). Forskolin was obtained from Sigma-Aldrich (Poole, UK). The sources of other materials are provided above in Example 1. CHO-K1 cells stably transfected with the human adenosine A3 receptor were grown in Dulbecco's modified Eagles medium with nutrient mixture F12 containing NaHCO3 and Glutamax. Media was supplemented with 10% fetal calf serum, geneticin (G418; 0.67 mg/mL), hygromycin (500 μg/mL) and adenosine deaminase (1 U/mL). Cells were maintained at 37° C. with 5% CO2 in air.
cAMP Measurements: Intracellular cAMP production was measured directly using a non-acetylation cAMP enzyme immunoassay (Amersham Biosciences, Little Chalfont, UK). Cultured CHO cells expressing human adenosine A3 receptors were allowed to plate overnight in 96-well plates in culture medium containing adenosine deaminase. Twenty-four hours later, they were incubated with adenosine analogues or compounds of the invention (0.1 nM-1 μM) for 5 min at 37° C., followed by incubation with forskolin (10 μM) for 10 min. The cells were then lysed with 200 μL of lysis reagent 1 provided with the kit for 10 min to release intracellular cAMP. Aliquots of the supernatants were then transferred to a 96-well microtitre plate coated with donkey anti-rabbit IgG; 100-μL cAMP standards (12.5-3200 fmol/well) were also added to the microtitre plate; 100 μL of rabbit anti-cAMP antibody was added to all wells and incubated at 2-5° C. for 2 h. The antiserum was made up in lysis reagent 2, which sequesters the key component in lysis reagent 1 and ensures that cAMP is free for subsequent analysis. Then 50 μL of cAMP peroxidase conjugate was added to all wells and left to incubate for 60 min at 2-5° C. to allow competition for the antibody between the un-labelled and horse radish peroxidase (HRP)-labelled cAMP. Wells were then washed with buffer and 150 μL of enzyme substrate containing 3,3′,5,5′-tetramethylbenzidine/hydrogen peroxide in 20% (v/v) dimethylformamide was added to each well and left to incubate for 60 min on a Titramax 100 microtitre plate shaker (Heidolph Instruments, Schwabach, Germany) at room temperature for color development. The reaction was stopped by the addition of 100 μL of 1 M sulfuric acid and the optical density (OD) read at 450 nm on a spectrophotometric MRX microplate reader (Dynex Technologies, Chantilly, VA, USA).
Analyses: Each sample/standard was analyzed in duplicate and the resulting OD values averaged. The percent bound (B/Bo) for each standard and sample was calculated using the following relationship: […]
where B is the specific OD for standard/sample and Bo is the specific OD for the zero standard. A standard curve was generated by plotting % B/Bo as a function of the log fmol cAMP standard per well. The fmol per well value for cAMP in each sample was then read from the graph. The results are expressed as a percent of control agonist response: (measured response/control response)*100 in the presence of the compounds of the invention. Concentration-response curves for inhibition of cAMP production were constructed for all compounds of the invention and reference compounds. The EC50 values (concentration producing a half-maximal response) were determined by non-linear regression analysis of the concentration-response curves generated with mean replicate values using Hill equation curve fitting, according to the equation:
where Y=response, A=left asymptote of the curve, D=right asymptote of the curve, C=compound concentration, and C50=EC50, and nH=slope factor. […]

T1 sequence (P0DMS8 whole entry): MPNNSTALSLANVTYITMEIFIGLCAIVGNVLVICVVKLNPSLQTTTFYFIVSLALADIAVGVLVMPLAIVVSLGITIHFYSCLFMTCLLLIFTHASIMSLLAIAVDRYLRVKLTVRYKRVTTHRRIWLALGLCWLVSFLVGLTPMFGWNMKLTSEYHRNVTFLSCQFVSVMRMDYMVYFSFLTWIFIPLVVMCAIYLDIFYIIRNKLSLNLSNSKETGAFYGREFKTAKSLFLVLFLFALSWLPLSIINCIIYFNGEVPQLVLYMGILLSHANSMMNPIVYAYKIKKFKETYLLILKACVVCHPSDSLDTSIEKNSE

| Ki [1] [nM] | EC50 [2] [nM] | CAMP Efficacy (%) [2] [%] | SMILES |
| --- | --- | --- | --- |
| 0.72 | 0.22 | 105.1 | CNC(=O)C12C[C@@H]1[C@@H](n1cnc3c(NCC4CC4)cc(Cl)nc31)[C@H](O)[C@@H]2O (stereo in doubt) [Compound 63, (1S,2R,3S,4R,5S)-4-(5-chloro-7-((cyclopropylmethyl)amino)-3H-imidazo[4,5-b]pyridin-3-yl)-2,3-dihydroxy-N-methylbicyclo[3.1.0]hexane-1-carboxamide] |
| 0.33 | 0.31 | 103.26 | CNC(=O)[C@@]12C[C@@H]1[C@@H](n1cnc3c(NCc4cc(Cl)ccc4OCc4cc(C)no4)cc(Cl)nc31)[C@H](O)[C@@H]2O [Compound 62, (1S,2R,3S,4R,5S)-4-(5-chloro-7-((5-chloro-2-((3-methylisoxazol-5-yl)methoxy)benzyl)amino)-3H-imidazo[4,5-b]pyridin-3-yl)-2,3-dihydroxy-N-methylbicyclo[3.1.0]hexane-1-carboxamide] |
| 4.75 | 1.33 | 38.22 | O[C@@H]1[C@H](O)[C@@H]2C[C@@H]2[C@H]1n1cnc2c(NCc3cc(Cl)ccc3Cl)cc(Cl)nc21 [Compound 68, (1R,2R,3S,4R,5S)-4-(5-chloro-7-((2,5-dichlorobenzyl)amino)-3H-imidazo[4,5-b]pyridin-3-yl)bicyclo[3.1.0]hexane-2,3-dio] |
| 0.133 | 0.1 | 104.76 | CCNc1cc(C#N)nc2c1ncn2[C@H]1[C@H](O)[C@H](O)[C@]2(C(=O)NC)C[C@H]12 [Compound 70, (1S,2R,3S,4R,5S)-4-(5-cyano-7-(ethylamino)-3H-imidazo[4,5-b]pyridin-3-yl)-2,3-dihydroxy-N-methylbicyclo[3.1.0]hexane-1-carboxamide] |
| 2.59 | 15.2 | 52 | CCNc1c(C#N)c(Cl)nc2c1ncn2[C@H]1[C@H](O)[C@H](O)[C@@H]2C[C@@H]21 [Compound 93, 5-chloro-3-((1S,2R,3S,4R,5R)-3,4-dihydroxybicyclo[3.1.0]hexan-2-yl)-7-(ethylamino)-3H-imidazo[4,5-b]pyridine-6-carbonitrile] |

— US20230416245A1, “ADENOSINE ANALOGS FOR THE TREATMENT OF DISEASE” (BIOINTERVENE, INC., priority 2020, published 2023)
